Values after ≈ are worked out from the molar mass of the structure shown.
Experiments:
Format in all cases: cell-based
C. albicans SN152 = experiment: MIC80 broth double-dilution assay; conditions: YPAD medium, 30° C., 24 h; parent strain of the erg11ΔΔ/erg3ΔΔ mutant
Protocol: (§1) The antifungal activities of the 24 azole-COX inhibitor hybrids were evaluated against a panel of 16 representative strains of different species of the genus Candida. Candida species cause both superficial and systemic infections. The panel included strains of C. albicans, C. glabrata, C. parapsilosis, C. tropicalis, C. guilliermondii, C. dubliniensis, and C. auris (Table S2). To evaluate antifungal activity, the minimal inhibitory concentration 80% (MIC80) values were determined, which were defined as the lowest drug concentrations with turbidity (measured at OD600) less than or equal to that of specific 1:5 dilutions of the growth control. As controls, FLC and VOR, were tested.
(§2) MIC80 values were determined using the broth microdilution method over a concentration range of 0.003-64 μg/mL. Orange circles represent C. albicans strains, yellow circles represent C. glabrata strains, and green circles represent C. parapsilosis, C. tropicalis, C. dubliniensis and C. auris. Cells were grown in YPAD medium at 30° C. (For C. auris strains 37° C.) 24 h. Each concentration was tested in triplicate, and results were confirmed in at least two independent experiments.
(§3) The clinically used FLC and VOR act primarily by preventing ergosterol biosynthesis via inhibition of CYP51. Analysis was done to determine whether fungal growth inhibition by the hybrids required the presence of the ERG11 gene that encodes for CYP51. The antifungal activities of hybrids 1 and 5 and of FLC and VOR were determined against an erg11ΔΔ/erg3ΔΔ mutant C. albicans strain and against C. albicans SN152 from which this double knockout strain was derived (Table S2). […] Yeast growth was followed at OD600 over 48 h in 96-well plates containing serial double dilutions of the tested hybrids.
(§4) C. albicans, C. glabrata, C. parapsilosis, C. guilliermondii, C. tropicalis, and C. dubliniensis MICs were determined using CLSI M27-A3 guidelines with minor modifications. Starter cultures were streaked from glycerol stock onto YPAD agar plates and grown for 24 h at 30° C. Colonies were suspended in 1 mL PBS and diluted to 1×10^−3 OD600 and then diluted 1:100 into fresh medium. Hybrids dissolved in DMSO were added to YPAD broth (32 μL stock solution in 1218 μL of YPAD broth), and serial double dilutions of hybrids in YPAD were prepared in flat-bottomed 96-well microplates (Corning) to enable testing of concentrations ranging from 64 μg/mL to 0.003 μg/mL. Control wells with yeast cells but no drug and blank wells containing only YPAD were prepared. An equal volume (100 μL) of yeast suspensions in YPAD broth was added to each well with the exceptions of the blank wells. MIC values (Tables S4-S6) were determined after 24 h at 30° C. by measuring the OD600 using a plate reader (Infinite M200 PRO, Tecan). MIC values were defined as the point at which the OD600 was reduced by >80% compared to the no-drug wells. Each concentration was tested in triplicate, and results were confirmed by two independent sets of experiments. FLC and VOR were used as control drugs.

[1] = test system: C. albicans 742 (erg11ΔΔ/erg3ΔΔ mutant C. albicans strain); experiment: MIC80 broth double-dilution assay, strain lacking CYP51; conditions: YPAD medium, 30° C., 24 h; erg11ΔΔ/erg3ΔΔ mutant lacking CYP51
Protocol: as §1, §3, §4

C. albicans ATCC 24433 = experiment: MIC80 broth double-dilution assay; conditions: YPAD medium, 30° C., 24 h
Protocol: as §1, §2, §4

C. albicans ATCC 90028 = experiment: MIC80 broth double-dilution assay; conditions: YPAD medium, 30° C., 24 h
Protocol: as §1, §2, §4

C. albicans P-87 = experiment: MIC80 broth double-dilution assay; conditions: YPAD medium, 30° C., 24 h
Protocol: as §1, §2, §4

C. albicans SC5314 = experiment: MIC80 broth double-dilution assay; conditions: YPAD medium, 30° C., 24 h
Protocol: as §1, §2, §4

C. dubliniensis T-99 = experiment: MIC80 broth double-dilution assay; conditions: YPAD medium, 30° C., 24 h
Protocol: as §1, §2, §4

[2] = test system: C. parapsilosis ATCC 22019; experiment: MIC80 broth double-dilution assay; conditions: YPAD medium, 30° C., 24 h
Protocol: as §1, §2, §4

C. tropicalis 660 = experiment: MIC80 broth double-dilution assay; conditions: YPAD medium, 30° C., 24 h
Protocol: as §1, §2, §4

C. guilliermondii T-47 = experiment: MIC80 broth double-dilution assay; conditions: YPAD medium, 30° C., 24 h
Protocol: as §1, §4

[3] = test system: panel of 16 representative strains of different species of the genus Candida; experiment: Antifungal activity (MIC80) against a panel of Candida strains, comparison; conditions: azole-susceptible strains
Protocol: as §1, §2, §4

C. auris ATCC MYA5001 = experiment: MIC broth double-dilution assay with MTT (CLSI M27-A3); conditions: YPAD medium, 37° C., 24 h, growth score 0 or 1
Protocol: (§5) Minimal inhibitory concentration broth double-dilution assay: C. auris minimal inhibitory concentrations (MICs) were determined using CLSI M27-A3 guidelines with minor modifications. Starter cultures were streaked from glycerol stock onto YPAD agar plates and grown for 24 h at 37° C. Colonies were suspended in 1 mL PBS and diluted to 1×10^−3 optical density at 600 nm (OD600) and then diluted 1:100 into fresh medium. hybrids dissolved in DMSO were added to YPAD broth (32 μL stock solution in 1218 μL of YPAD broth), and serial double dilutions of hybrids in YPAD were prepared in flat-bottomed 96-well microplates (Corning) to enable testing of concentrations ranging from 64 μg/mL to 0.007 μg/mL. Control wells with yeast cells but no drug and blank wells containing only YPAD were prepared. An equal volume (100 μL) of yeast suspension in YPAD broth was added to each well with the exceptions of the blank wells. After incubation for 24 h at 37° C., MTT (50 μL of a 1 mg/mL solution in ddH2O) was added to each well followed by additional incubation at 37° C. for 2 h. MIC values (Table S3) were defined as the lowest concentration of an antifungal agent that caused a specified reduction in visible growth as per the CLSI M27-A3 protocol. The magnitude of reduction in visible growth was assessed using the following numerical scale: 0, optically clear; 1, slightly hazy; 2, prominent decrease (˜50%) in visible growth; 3, slight reduction in visible growth; and 4, no reduction in visible growth. The MIC was defined based on reduction in growth to 0 or 1. Results were confirmed in two independent experiments, and each concentration was tested in triplicate. FLC and VOR were used as control drugs.

C. auris ATCC MYA5002 = experiment: as above; conditions: YPAD medium, 37° C., 24 h, growth score 0 or 1
Protocol: as §5

SMILES | MIC80 against C. albicans SN152 (C. albicans SN152) | MIC80 against C. albicans 742 [1] | MIC80 against C. albicans 24433 (C. albicans ATCC 24433) | MIC80 against C. albicans 90028 (C. albicans ATCC 90028) | MIC80 against C. albicans P-87 (C. albicans P-87) | MIC80 against C. albicans SC5314 (C. albicans SC5314) | MIC80 against C. dubliniensis T-99 (C. dubliniensis T-99) | MIC80 against C. parapsilosis 22019 [2] | MIC80 against C. tropicalis 660 (C. tropicalis 660) | MIC80 against C. guilliermondii T-47 (C. guilliermondii T-47) | Antifungal potency (MIC80) in comparison with FLC, VOR or the corresponding stereoisomer [3] | MIC against C. auris 5001 (C. auris ATCC MYA5001) | MIC against C. auris 5002 (C. auris ATCC MYA5002)
CC(C)Cc1ccc([C@@H](C)C(=O)NC[C@@](O)(Cn2cncn2)c2ccc(F)cc2F)cc1 [Hybrid 3] | 0.06 µg/mL (≈ 0.136 µM) | 64 µg/mL (≈ 145 µM) | 0.12 µg/mL (≈ 0.271 µM) | 0.06 µg/mL (≈ 0.136 µM) | 0.03 µg/mL (≈ 0.0678 µM) | 0.03 µg/mL (≈ 0.0678 µM) | 1 µg/mL (≈ 2.26 µM) | 0.5 µg/mL (≈ 1.13 µM) | 1 µg/mL (≈ 2.26 µM) | 1 µg/mL (≈ 2.26 µM) | more potent than the corresponding S-configured ibuprofen hybrid 4 |  | 
CC(C)Cc1ccc([C@@H](C)C(=O)NC[C@](O)(Cn2cncn2)c2ccc(F)cc2F)cc1 [Hybrid 2] | 0.007 µg/mL (≈ 0.0158 µM) | 64 µg/mL (≈ 145 µM) | 0.015 µg/mL (≈ 0.0339 µM) | 0.007 µg/mL (≈ 0.0158 µM) | 0.007 µg/mL (≈ 0.0158 µM) | 0.007 µg/mL (≈ 0.0158 µM) | 0.12 µg/mL (≈ 0.271 µM) | 0.015 µg/mL (≈ 0.0339 µM) | 0.5 µg/mL (≈ 1.13 µM) | 0.06 µg/mL (≈ 0.136 µM) | lowest MIC80 values against all of the azole-susceptible strains | 0.06 µg/mL (≈ 0.136 µM) | 1 µg/mL (≈ 2.26 µM)

Source: patent US20250018048A1, “FLUCONAZOLE-COX INHIBITOR HYBRIDS: A DUAL-ACTING CLASS OF ANTIFUNGAL AZOLES” (Ramot at Tel-Aviv University Ltd., priority 2022, published 2025)
